Experimental data taken from patent US6075006A, “Soluble tachykinin antagonists, the preparation and use thereof” (Centro Interuniversitario di Ricera Sui Peptidi …, priority 1996, dated 2000).
In brackets after ≈: the same amount, converted by molar mass. Where two headings read alike, the source gives them in different places. Bridge positions count the residues as written; N and C are the ends. Square brackets hold non-standard residues; d marks the D form. Peptide text beside a SMILES is read from it. * marks the point of attachment. βGal = OC[C@H]1O[C@@H](*)[C@H](O)[C@@H](O)[C@H]1O; X1 = OC[C@H]1O[C@@H](N*)[C@H](O)[C@@H](O)[C@H]1O; Dap = NC[C@H](N)C(=O)O

Assays:
Water solubility = assay type: physicochemical; conditions: table of example 2
[1] = water solubility of known insoluble antagonists, stated in the description; cited from earlier work

| Solubility (Water solubility) | Compound | Solubility [1] |
| --- | --- | --- |
| 2.020 µg/mL (≈ 2.3 µM) | CC(C)C[C@@H]1NC(=O)[C@@H]2CNC(=O)C[C@H](NC(=O)[C@H](CO[C@@H]3O[C@H](CO)[C@H](O)[C@H](O)[C@H]3O)NC1=O)C(=O)N[C@@H](Cc1c[nH]c3ccccc13)C(=O)N[C@@H](Cc1ccccc1)C(=O)N2 [Comparative example 1, cyclo[Ser^1 (β-D-Gal)-Asp^2 -Trp^3 -Phe^4 -Dap^5 -Leu^6]cyclo(2β-5β)] (cyclo(DWF[Dap]LS(βGal)); lactam 1-4) | – |
| 1.980 µg/mL (≈ 2.19 µM) | CC(C)C[C@@H]1NC(=O)[C@@H]2CNC(=O)C[C@H](NC(=O)[C@H](CC(=O)N[C@@H]3O[C@H](CO)[C@H](O)[C@H](O)[C@H]3O)NC1=O)C(=O)N[C@@H](Cc1c[nH]c3ccccc13)C(=O)N[C@@H](Cc1ccccc1)C(=O)N2 [Comparative example 2, cyclo[Asn^1 (β-D-Gal)-Asp^2 -Trp^3 -Phe^4 -Dap^5 -Leu^6]cyclo(2β-5β)] (cyclo(D(X1)DWF[Dap]L); lactam 2-5) | – |
| 1.800 µg/mL (≈ 2.01 µM) | CC(C)C[C@@H]1NC(=O)[C@@H]2CNC(=O)C[C@H](NC(=O)[C@H](CS[C@@H]3O[C@H](CO)[C@H](O)[C@H](O)[C@H]3O)NC1=O)C(=O)N[C@@H](Cc1c[nH]c3ccccc13)C(=O)N[C@@H](Cc1ccccc1)C(=O)N2 [Example 1, cyclo[Cys^1 (β-D-Gal)-Asp^2 -Trp^3 -Phe^4 -Dap^5 -Leu^6]cyclo(2β-5β)] (cyclo(C(βGal)DWF[Dap]L); lactam 2-5) | – |
| 15 µg/mL (≈ 19.7 µM) | CSCC[C@@H]1NC(=O)[C@H](CC(C)C)NC(=O)[C@@H]2CNC(=O)C[C@H](NC1=O)C(=O)N[C@@H](Cc1c[nH]c3ccccc13)C(=O)N[C@@H](Cc1ccccc1)C(=O)N2 [MEN 10627] (cyclo(DWF[Dap]LM); lactam 1-4) | 15 µg/mL (≈ 19.7 µM) |
